Structures can show the parent of a compound that is named as a salt.
Experiments:
[1] = test system: Klebsiella pneumoniae expressing KPC-1 (CL6569); assay: Antibiotic activity: growth inhibitory concentration (OD600), Klebsiella pneumoniae CL6569; type: cell-based; conditions: lowest concentration inhibiting 95% of bacterial growth; in the presence of β lactamase inhibitor Relebactam 4 μg/mL; 35±2° C. for 22 hours; tested range 100 μM to 0.098 μM
How it was run: (§1)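 Clinical strains at ~2×10^5 CFU/mL in cation-adjusted Mueller-Hinton II broth, with relebactam at 4 μg/mL final; compounds 100 μM to 0.098 μM final. After 22 hours at 35±2° C, OD600 read; MITC95 is lowest concentration giving 95% growth inhibition.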

[2] = test system: Pseudomonas aeruginosa expressing AmpC (CL5701); assay: Antibiotic activity: growth inhibitory concentration (OD600), Pseudomonas aeruginosa CL5701; type: cell-based; conditions: lowest concentration inhibiting 95% of bacterial growth; in the presence of β lactamase inhibitor Relebactam 4 μg/mL; 35±2° C. for 22 hours; tested range 100 μM to 0.098 μM
How it was run: as §1

SMILES | KP_CL6569 MITC95 [1] [µM] | PA_CL5701 MITC95 [2] [µM]
CC1(C)[C@H](NC(=O)/C(=N\O[C@@H](COc2ccc(Nc3cc[n+](CCCN)cc3)nc2)C(=O)O)c2csc(N)n2)C(=O)N1OS(=O)(=O)O [Example 33, 1-(3-aminopropyl)-4-((5-((S)-2-((((Z)-1-(2-aminothiazol-4-yl)-2-(((S)-2,2-dimethyl-4-oxo-1-(sulfooxy)azetidin-3-yl)amino)-2-oxoethylidene)amino)oxy)-2-carboxyethoxy)pyridin-2-yl)amino)pyridin-1-ium 2,2,2-trifluoroacetate] | 0.3906 | 6.25
CC1(C)[C@H](NC(=O)/C(=N\O[C@@H](COc2ccc(-n3ccn(CCCN)c3=N)nc2)C(=O)O)c2csc(N)n2)C(=O)N1OS(=O)(=O)O [Example 118, (S)-3-((6-(3-(3-aminopropyl)-2-imino-2,3-dihydro-1H-imidazol-1-yl)pyridin-3-yl)oxy)-2-((((Z)-1-(2-aminothiazol-4-yl)-2-(((S)-2,2-dimethyl-4-oxo-1-(sulfooxy)azetidin-3-yl)amino)-2-oxoethylidene)amino)oxy)propanoic acid] | 0.3906 | 6.25
CC1(C)[C@H](NC(=O)/C(=N\O[C@@H](COc2ccc(-c3cn(CCCN)[n+](CC4CNC4)c3)cc2)C(=O)O)c2csc(N)n2)C(=O)N1OS(=O)(=O)[O-] [Example 97, (S)-3-((Z)-2-(((S)-2-(4-(1-(3-aminopropyl)-2-(azetidin-3-ylmethyl)-1H-pyrazol-2-ium-4-yl)phenoxy)-1-carboxyethoxy)imino)-2-(2-aminothiazol-4-yl)acetamido)-2,2-dimethyl-4-oxoazetidin-1-yl sulfate] | 0.125 | 1.781
C[n+]1cc(-c2ccc(OC[C@H](O/N=C(\C(=O)N[C@@H]3C(=O)N(OS(=O)(=O)[O-])C3(C)C)c3csc(N)n3)C(=O)O)cc2)cn1CCCN [Example 1, (S)-3-((Z)-2-(2-aminothiazol-4-yl)-2-(((S)-2-(4-(1-(3-ammoniopropyl)-2-methyl-1H-pyrazol-2-ium-4-yl)phenoxy)-1-carboxyethoxy)imino)acetamido)-2,2-dimethyl-4-oxoazetidin-1-yl sulfate 2,2,2-trifluoroacetate] | 0.3906 | 3.125
C[n+]1cc(-c2ccc(OC[C@H](O/N=C(\C(=O)N[C@@H]3C(=O)N(OS(=O)(=O)[O-])C3(C)C)c3csc(N)n3)C(=O)O)cc2)cnc1NCCN [Example 77, (S)-3-((Z)-2-(((S)-2-(4-(2-((2-aminoethyl)amino)-1-methylpyrimidin-1-ium-5-yl)phenoxy)-1-carboxyethoxy)imino)-2-(2-aminothiazol-4-yl)acetamido)-2,2-dimethyl-4-oxoazetidin-1-yl sulfate] | 0.3906 | 3.125
CC1(C)[C@H](NC(=O)/C(=N\O[C@@H](COc2ccc(-c3cn(CCCN)[n+](CC(F)CN)c3)cc2)C(=O)O)c2csc(N)n2)C(=O)N1OS(=O)(=O)[O-] (single isomer, unassigned) [Example 120] | 0.1953 | 3.125
C[n+]1cc(-c2ccc(OC[C@H](O/N=C(\C(=O)N[C@@H]3C(=O)N(OS(=O)(=O)O)C3(C)C)c3csc(N)n3)C(=O)O)cc2)ccc1CCCN [Example 88, (S)-3-((Z)-2-(((S)-2-(4-(6-(3-aminopropyl)-1-methylpyridin-1-ium-3-yl)phenoxy)-1-carboxyethoxy)imino)-2-(2-aminothiazol-4-yl)acetamido)-2,2-dimethyl-4-oxoazetidin-1-yl sulfate] | 0.3906 | 3.125
CC1(C)[C@H](NC(=O)/C(=N\OCCOc2ccc(-c3nc4c([nH]3)CNCC4)cc2)c2csc(N)n2)C(=O)N1OS(=O)(=O)O [Example 86, (S)-3-(2-(2-aminothiazol-4-yl)-2-((2-(4-(4,5,6,7-tetrahydro-3H-imidazo[4,5-c]pyridin-2-yl)phenoxy)ethoxy)imino)acetamido)-2,2-dimethyl-4-oxoazetidin-1-yl hydrogen sulfate] | 1.281 | 25
C[n+]1cc(-c2ccc(OC[C@H](O/N=C(\C(=O)N[C@@H]3C(=O)N(OS(=O)(=O)O)C3(C)C)c3csc(N)n3)C(=O)O)cc2)cn1CCCNCC1CNC1 [Example 103, (S)-3-((E)-2-(2-aminothiazol-4-yl)-2-(((S)-2-(4-(1-(3-((azetidin-3-ylmethyl)amino)-propyl)-2-methyl-1H-pyrazol-2-ium-4-yl)phenoxy)-1-carboxyethoxy)imino)acetamido)-2,2-dimethyl-4-oxoazetidin-1-yl sulfate, 3TFA] | 0.09766 | 3.125
CC1(C)[C@H](NC(=O)/C(=N\O[C@@H](COc2ccc(-c3cnn(CC[N+]4(C)CCOCC4)c3)cc2)C(=O)O)c2csc(N)n2)C(=O)N1OS(=O)(=O)O.O=C([O-])C(F)(F)F [Example 14, 4-(2-(4-(4-((S)-2-((((Z)-1-(2-aminothiazol-4-yl)-2-(((S)-2,2-dimethyl-4-oxo-1-(sulfooxy)azetidin-3-yl)amino)-2-oxoethylidene)amino)oxy)-2-carboxyethoxy)phenyl)-1H-pyrazol-1-yl)ethyl)-4-methylmorpholin-4-ium 2,2,2-trifluoroacetate] | 0.7813 | 12.5
C[n+]1cc(-c2ccc(OC[C@H](O/N=C(\C(=O)N[C@@H]3C(=O)N(OS(=O)(=O)[O-])C3(C)C)c3nc(N)sc3Cl)C(=O)O)cc2)cn1CCCN [Example 11, (S)-3-((Z)-2-(2-Amino-5-chlorothiazol-4-yl)-2-(((S)-2-(4-(1-(3-aminopropyl)-2-methyl-1H-pyrazol-2-ium-4-yl)phenoxy)-1-carboxyethoxy)imino)acetamido)-2,2-dimethyl-4-oxoazetidin-1-yl sulfate] | 0.7813 | 3.125
C[n+]1cc(-c2ccc(OC[C@](C)(O/N=C(\C(=O)N[C@@H]3C(=O)N(OS(=O)(=O)O)C3(C)C)c3csc(N)n3)C(=O)O)cc2)ccc1NCCN [Example 87, (S)-3-((Z)-2-((((S)-1-(4-(6-((2-aminoethyl)amino)-1-methylpyridin-1-ium-3-yl)phenoxy)-2-carboxypropan-2-yl)oxy)imino)-2-(2-aminothiazol-4-yl)acetamido)-2,2-dimethyl-4-oxoazetidin-1-yl sulfate] | 0.1953 | 3.125
CC1(C)[C@H](NC(=O)/C(=N\O[C@@H](COc2ccc(-c3ccc(NCCN)[n+](CC4CNC4)c3)cc2)C(=O)O)c2csc(N)n2)C(=O)N1OS(=O)(=O)[O-] [Example 98, (S)-3-((Z)-2-(((S)-2-(4-(6-((2-aminoethyl)amino)-1-(azetidin-3-ylmethyl)pyridin-1-ium-3-yl)phenoxy)-1-carboxyethoxy)imino)-2-(2-aminothiazol-4-yl)acetamido)-2,2-dimethyl-4-oxoazetidin-1-yl sulfate] | 0.09766 | 1.563
COP(=O)(O)[C@H](COc1ccc(-c2cn(CCCN)[n+](C)c2)cc1)O/N=C(\C(=O)N[C@@H]1C(=O)N(OS(=O)(=O)O)C1(C)C)c1csc(N)n1.O=C(O)C(F)(F)F [Example 41, (3S)-3-((Z)-2-(((1R)-2-(4-(1-(3-aminopropyl)-2-methyl-1H-pyrazol-2-ium-4-yl)phenoxy)-1-(hydroxy(methoxy)phosphoryl)ethoxy)imino)-2-(2-aminothiazol-4-yl)acetamido)-2,2-dimethyl-4-oxoazetidin-1-yl sulfate compound with 2,2,2-trifluoroacetic acid (1:1)] | 1.563 | 25
CC1(C)[C@H](NC(=O)/C(=N\O[C@@H](COc2ccc(-n3cc[n+](CC4CNC4)c3)nc2)C(=O)O)c2csc(N)n2)C(=O)N1OS(=O)(=O)[O-] [Example 109, (S)-3-((Z)-2-(2-aminothiazol-4-yl)-2-(((S)-2-((6-(3-(azetidin-3-ylmethyl)-1H-imidazol-3-ium-1-yl)pyridin-3-yl)oxy)-1-carboxyethoxy)imino)acetamido)-2,2-dimethyl-4-oxoazetidin-1-yl sulfate] | 0.7813 | 12.5
CC1(C)[C@H](NC(=O)/C(=N\O[C@@H](COc2ccc(-c3cn(CCCN)[n+](CCCN)c3)cc2)C(=O)O)c2csc(N)n2)C(=O)N1OS(=O)(=O)[O-] [Example 54, (S)-3-((Z)-2-(2-aminothiazol-4-yl)-2-(((S)-2-(4-(1,2-bis(3-aminopropyl)-1H-pyrazol-2-ium-4-yl)phenoxy)-1-carboxyethoxy)imino)acetamido)-2,2-dimethyl-4-oxoazetidin-1-yl sulfate] | 0.09766 | 1.563
C[n+]1cc(-c2ccc(OC[C@H](O/N=C(\C(=O)N[C@@H]3C(=O)N(OS(=O)(=O)O)C3(C)C)c3csc(N)n3)C(=O)O)cc2F)cn1CC(O)CN.O=CO (stereo partly drawn) [Example 44, (3S)-3-((Z)-2-(((1S)-2-(4-(1-(3-amino-2-hydroxypropyl)-2-methyl-1H-pyrazol-2-ium-4-yl)-3-fluorophenoxy)-1-carboxyethoxy)imino)-2-(2-aminothiazol-4-yl)acetamido)-2,2-dimethyl-4-oxoazetidin-1-yl sulfate compound with formic acid (1:1)] | 0.1953 | 3.125

Reference: patent publication US11230543B2, “Biaryl monobactam compounds and methods of use thereof for the treatment of bacterial infections” (priority 2015, dated 2022)
